Measurements: PubChem BioAssay (NCI)
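Method: 48-hour compound exposure of cells in 96-well plates, five concentrations, linear interpolation of endpoints. Here, GI50 denotes the concentration required for 50% inhibition of growth. At the TGI there is no net growth.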

Columns and labels:
Assay in all cases: inhibition of tumour cell growth, NCI panel, 48 h
SK-OV-3 ovarian = system: SK-OV-3 ovarian
M14 melanoma = system: M14 melanoma
SNB-75 CNS = system: SNB-75 CNS
MDA-N = system: MDA-N
HOP-92 NSCLC = system: HOP-92 NSCLC
MALME-3M melanoma = system: MALME-3M melanoma
OVCAR-4 ovarian = system: OVCAR-4 ovarian
HOP-18 NSCLC = system: HOP-18 NSCLC
DMS 273 small cell lung = system: DMS 273 small cell lung
XF 498 CNS = system: XF 498 CNS
DMS 114 small cell lung = system: DMS 114 small cell lung

Compound	TGI (SK-OV-3 ovarian)	TGI (M14 melanoma)	TGI (SNB-75 CNS)	TGI (MDA-N)	TGI (HOP-92 NSCLC)	TGI (MALME-3M melanoma)	TGI (OVCAR-4 ovarian)	further results
O=C1c2cc(O)c(O)cc2O[C@H](c2ccc(O)c(O)c2)[C@H]1O	> 100 µM	> 100 µM	> 100 µM	> 100 µM	> 100 µM	–	–	–
Oc1ccc(C(=C(Br)c2ccccc2)c2ccc(O)cc2)cc1	16.9 µM	15.3 µM	–	4.1 µM	22.5 µM	18 µM	–	–
CSc1nncc(-c2cc3c(c(SC)n2)CCCC3)n1	> 100 µM	> 100 µM	> 100 µM	> 100 µM	–	–	> 100 µM	–
O=[N+]([O-])c1ccc(/C=N/Nc2nc3ccccc3[nH]2)o1	> 100 µM	27.6 µM	36.4 µM	31.7 µM	39.1 µM	30.7 µM	21.6 µM	–
O=C(CSCC(=O)N/N=C/c1cccc(O)c1)N/N=C/c1cccc(O)c1	> 100 µM	> 100 µM	> 100 µM	–	> 100 µM	> 100 µM	> 100 µM	–
C=C(C#N)C(=O)OCC(CC)CC.C=C(C#N)C(=O)OCC(CC)CC.CS(C)=O.CS(C)=O.Nc1c(N=Nc2ccc(-c3ccc(N=Nc4cc(S(=O)(=O)[O-])c5ccccc5c4N)cc3)cc2)cc(S(=O)(=O)[O-])c2ccccc12.[Pt+2]	> 100 µM	–	> 100 µM	–	45.4 µM	50 µM	99.2 µM	GI50 (SK-OV-3 ovarian): 97.9 µM; GI50 (MALME-3M melanoma): 21.8 µM; GI50 (SNB-75 CNS): 65.4 µM; GI50 (HOP-18 NSCLC): 22 µM; TGI (HOP-18 NSCLC): 53.9 µM; GI50 (OVCAR-4 ovarian): 33.7 µM; GI50 (HOP-92 NSCLC): 19.6 µM; GI50 (DMS 273 small cell lung): 40.4 µM; TGI (DMS 273 small cell lung): > 100 µM; GI50 (XF 498 CNS): 21.1 µM; TGI (XF 498 CNS): 40.9 µM
O=C1c2cc3c(cc2-c2c1c1ccc(Cl)cc1c(=O)n2C[C@H](O)CO)OCO3	1.66 µM	0.244 µM	1.1 µM	–	–	–	–	GI50 (SK-OV-3 ovarian): 0.0444 µM; GI50 (M14 melanoma): 0.025 µM; GI50 (SNB-75 CNS): 0.0245 µM
O=C1C(Cl)N(c2ccccc2Cl)C1c1c[nH]c2ccccc12 (configuration not stated)	> 100 µM	> 100 µM	> 100 µM	–	> 100 µM	> 100 µM	> 100 µM	TGI (DMS 114 small cell lung): > 100 µM; TGI (XF 498 CNS): > 100 µM
CCOC(=O)c1c2c(n(-c3ccc(C)cc3)c1C)-c1ccccc1C(=O)C2(C(=O)OCC)C(=O)OCC	> 100 µM	> 100 µM	> 91.4 µM	–	88.6 µM	> 75.5 µM	> 100 µM	–
CCN(CC)CCNc1ccc2ncn3c4ccc(O)cc4c(=O)c1c23	18.2 µM	9.05 µM	11.6 µM	17.9 µM	12.8 µM	15.8 µM	9.81 µM	TGI (HOP-18 NSCLC): 33.3 µM; TGI (DMS 273 small cell lung): 12.5 µM; TGI (XF 498 CNS): 7.42 µM
CC(SC(=S)N1CCOCC1)C(=O)Nc1nnc(-c2ccc(Cl)cc2)o1 (configuration not stated)	> 100 µM	> 100 µM	> 100 µM	–	> 100 µM	> 100 µM	> 100 µM	–
COc1ccc(OC)c2sc(N3C(=O)/C(=C/c4cccc(Oc5ccccc5)c4)N=C3c3ccccc3)nc12	> 100 µM	> 100 µM	> 100 µM	> 100 µM	> 100 µM	> 100 µM	> 100 µM	–
O=C1CC(O)c2cscc21 (configuration not stated)	> 100 µM	–	> 100 µM	> 100 µM	> 100 µM	> 100 µM	> 100 µM	–
COc1ccc2nc3cc(Cl)ccc3c(NC(C)CCCN(CCCl)CCCl)c2c1 (configuration not stated)	6.59 µM	2.78 µM	8.98 µM	–	3.62 µM	9.63 µM	4.33 µM	TGI (DMS 114 small cell lung): 11.4 µM; TGI (DMS 273 small cell lung): 2.27 µM; TGI (XF 498 CNS): 4.43 µM
COC(=O)c1cc2c(cc1Cl)Sc1nnc(Nc3ccccc3)n1S2(=O)=O	19.4 µM	17.5 µM	17.1 µM	–	3.75 µM	11.6 µM	8.97 µM	–
Cc1cccc2sc(NC(=O)NS(=O)(=O)n3cnc4ccccc43)nc12	> 100 µM	> 100 µM	63.3 µM	> 100 µM	38.7 µM	72 µM	> 100 µM	–
COc1ccc2nc3c(c(N)c2c1)C1CCC3C1(C)C (configuration not stated)	> 100 µM	33.6 µM	> 100 µM	–	57.3 µM	67.3 µM	> 100 µM	–
O=S(=O)(/N=C(\NO)Nc1ccc(Cl)cc1)c1cc(C(F)(F)F)cc(C(F)(F)F)c1	35.2 µM	32.1 µM	33.1 µM	36.1 µM	30.3 µM	37.1 µM	31.6 µM	–
Cc1ccc(S(=O)(=O)N(CC(O)COc2ccccc2)c2c(F)cccc2F)cc1 (configuration not stated)	41.3 µM	32 µM	49 µM	31.4 µM	8.48 µM	52.4 µM	31.7 µM	–
C=CCNC(=O)C(C)C1CCC2(C)C=CC(=O)C(C)=C2C1O (configuration not stated)	> 100 µM	–	> 100 µM	–	> 100 µM	–	> 100 µM	TGI (HOP-18 NSCLC): > 100 µM; TGI (DMS 114 small cell lung): > 100 µM; TGI (DMS 273 small cell lung): > 100 µM; TGI (XF 498 CNS): > 100 µM
Cc1ccc(S(=O)(=O)OC2CC(C(C)(C)C)CCC2c2ccccc2)cc1 (configuration not stated)	> 100 µM	> 100 µM	68 µM	> 100 µM	> 100 µM	–	> 100 µM	–
O=C1c2ccccc2C(=O)c2[nH]cnc21	–	> 100 µM	–	–	–	57.3 µM	> 100 µM	TGI (DMS 114 small cell lung): 86.9 µM; TGI (DMS 273 small cell lung): > 100 µM; TGI (XF 498 CNS): 99.4 µM
NCCOc1cccc(C2(N3CCCCC3)CCCCC2)c1	> 100 µM	30.2 µM	> 100 µM	33.3 µM	95.2 µM	35.1 µM	> 100 µM	–
O=c1[nH]c2[nH]c(=S)[nH]c(=S)c2[nH]1	–	> 100 µM	–	> 100 µM	> 100 µM	> 100 µM	> 100 µM	–
